The target in assay [1] is full-length MALT1 protein (Strep-MALT1(1-824)-His) (Homo sapiens (Human), UniProt Q9UDY8). Kind of assay: MALT1 Biochemical Protease Assay. The following applies: read-out: MALT1_Biochemical activity (Ac-LRSR-amc) IC50; 10 nM FL MALT1, 200 μM Ac-LRSR-AMC, 50 min pre-incubation, 4 h at RT. From the text: From this an ICso value (inhibitory concentration causing 50% inhibition) can be obtained.

In assay [2] the test system is IL10 secretion, OCI-LY3 cells. Kind of assay: Human IL10 Mesoscale assay (OCI-LY3). Format: cell-based. The note with it: 24 h incubation.
The subject of assay [3] is IL6 secretion, OCI-LY3 cells. Kind of assay: Human IL6 Mesoscale assay (OCI-LY3). Format: cell-based. The note with it: 24 h incubation.

SMILES strings stand for the structures.

Chain of full-length MALT1 protein (Strep-MALT1(1-824)-His) (Q9UDY8 whole entry): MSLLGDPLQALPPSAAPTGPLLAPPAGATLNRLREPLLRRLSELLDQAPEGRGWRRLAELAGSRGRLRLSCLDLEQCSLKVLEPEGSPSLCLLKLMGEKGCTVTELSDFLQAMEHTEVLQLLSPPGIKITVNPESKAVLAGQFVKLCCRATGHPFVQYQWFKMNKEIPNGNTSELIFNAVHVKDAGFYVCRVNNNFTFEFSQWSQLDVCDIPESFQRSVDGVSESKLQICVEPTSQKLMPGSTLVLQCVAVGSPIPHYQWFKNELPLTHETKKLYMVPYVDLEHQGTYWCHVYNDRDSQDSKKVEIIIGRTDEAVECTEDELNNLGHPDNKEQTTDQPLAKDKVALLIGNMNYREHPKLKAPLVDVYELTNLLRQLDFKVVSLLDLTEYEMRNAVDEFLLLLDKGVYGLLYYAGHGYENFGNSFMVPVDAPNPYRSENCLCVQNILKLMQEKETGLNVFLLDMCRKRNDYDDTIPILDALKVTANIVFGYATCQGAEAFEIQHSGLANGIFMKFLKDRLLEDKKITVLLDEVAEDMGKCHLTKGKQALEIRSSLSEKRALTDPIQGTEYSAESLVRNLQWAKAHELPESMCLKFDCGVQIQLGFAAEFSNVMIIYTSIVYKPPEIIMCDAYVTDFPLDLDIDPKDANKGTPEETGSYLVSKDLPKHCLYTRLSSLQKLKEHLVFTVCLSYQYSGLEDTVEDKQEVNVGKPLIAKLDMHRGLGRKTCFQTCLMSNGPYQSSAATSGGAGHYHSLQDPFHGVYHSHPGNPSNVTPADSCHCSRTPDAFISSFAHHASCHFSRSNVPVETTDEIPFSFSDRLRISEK

Consider `CS(=O)(=O)c1ncc(NC(=O)c2cnn(-c3ccc(F)c4nccn34)c2C(F)(F)F)cc1C(F)(F)F` [Cpd 5, 1-(8-fluoroimidazo[1,2-a]pyridin-5-yl)-N-(6-(methylsulfonyl)-5-(trifluoromethyl)pyridin-3-yl)-5-(trifluoromethyl)-1H-pyrazole-4-carboxamide], for which the IC50 (commonly the concentration at which inhibition is half-maximal) in assay [1] came to 372 nM; in assay [2] it was 371 nM; in assay [3], 281 nM.

As to `N#Cc1ccc(-n2ncc(C(=O)Nc3cnc([C@@H]4CCCO4)c(Cl)c3)c2C(F)(F)F)c2ccnn12` (single isomer, unassigned) [Cpd 23, (*S)—N-(5-chloro-6-(tetrahydrofuran-2-yl)pyridin-3-yl)-1-(7-cyanopyrazolo[1,5-a]pyridin-4-yl)-5-(trifluoromethyl)-1H-pyrazole-4-carboxamide], the IC50 in assay [1] amounted to 36 nM; in assay [2] it was 115 nM; in assay [3], 200 nM.

As for `O=C(Nc1cnc(-n2nccn2)c(Cl)c1)c1cnn(-c2ccc(Cl)n3nccc23)c1C(F)(F)F` [Cpd 15, N-(5-chloro-6-(2H-1,2,3-triazol-2-yl)pyridin-3-yl)-1-(7-chloropyrazolo[1,5-a]pyridin-4-yl)-5-(trifluoromethyl)-1H-pyrazole-4-carboxamide], the IC50 in assay [1] is 33 nM; in assay [2], 31 nM; in assay [3], 47 nM.

On to `O=C(Nc1cnc(-n2cccn2)c(Cl)c1)c1cnn(-c2ccc(F)c3nccn23)c1C(F)(F)F` [Cpd 3, N-(5-chloro-6-(1H-pyrazol-1-yl)pyridin-3-yl)-1-(8-fluoroimidazo[1,2-a]pyridin-5-yl)-5-(trifluoromethyl)-1H-pyrazole-4-carboxamide], for which the half-inhibitory concentration (IC50) in assay [1] was 251 nM; in assay [2], 114 nM; in assay [3], 151 nM.

Regarding `N#Cc1ccc(-n2ncc(C(=O)Nc3cnc(-n4nccn4)c(Cl)c3)c2C(F)(F)F)n2ccnc12` [Cpd 2, N-(5-chloro-6-(2H-1,2,3-triazol-2-yl)pyridin-3-yl)-1-(8-cyanoimidazo[1,2-a]pyridin-5-yl)-5-(trifluoromethyl)-1H-pyrazole-4-carboxamide], the IC50 came out at 38 nM in assay [1], 47 nM in assay [2] and 83 nM in assay [3].

With `NC(=O)c1ccc(-n2ncc(C(=O)Nc3cnc(-n4nccn4)c(Cl)c3)c2C(F)(F)F)c2ccnn12` [Cpd 16, 4-(4-((5-chloro-6-(2H-1,2,3-triazol-2-yl)pyridin-3-yl)carbamoyl)-5-(trifluoromethyl)-1H-pyrazol-1-yl)pyrazolo[1,5-a]pyridine-7-carboxamide], the values for the IC50 in assay [1], in assay [2] and in assay [3] were 25 nM, 41 nM and 42 nM, respectively.

Consider `Cc1ccc(-n2ncc(C(=O)Nc3cnc(-n4nccn4)c(Cl)c3)c2C(F)(F)F)n2ccnc12` [Cpd 7, N-(5-chloro-6-(2H-1,2,3-triazol-2-yl)pyridin-3-yl)-1-(8-methylimidazo[1,2-a]pyridin-5-yl)-5-(trifluoromethyl)-1H-pyrazole-4-carboxamide], for which the IC50 in assay [1] is 120 nM; in assay [2], 65 nM; in assay [3] it was 219 nM.

In the case of `Cc1coc(-c2ncc(NC(=O)c3cnn(-c4ccc(F)c5nccn45)c3C(F)(F)F)cc2Cl)n1` [Cpd 10, N-(5-chloro-6-(4-methyloxazol-2-yl)pyridin-3-yl)-1-(8-fluoroimidazo[1,2-a]pyridin-5-yl)-5-(trifluoromethyl)-1H-pyrazole-4-carboxamide], the concentration for half-maximal inhibition (IC50) in assay [1] came out at 26 nM; in assay [2], 23 nM; in assay [3], 123 nM.

For `NC(=O)c1ccc(-n2ncc(C(=O)Nc3ccnc(C(F)(F)F)c3)c2C(F)(F)F)c2ccnn12` [Cpd 12, 4-(5-(trifluoromethyl)-4-((2-(trifluoromethyl)pyridin-4-yl)carbamoyl)-1H-pyrazol-1-yl)pyrazolo[1,5-a]pyridine-7-carboxamide], the figures for the IC50 in assay [1], in assay [2] and in assay [3] were 219 nM, 155 nM and 288 nM, respectively.

On to `N#Cc1ccc(-n2ncc(C(=O)Nc3cnc(-n4nccn4)c(Cl)c3)c2C(F)(F)F)c2ccnn12` [Cpd 13, N-(5-chloro-6-(2H-1,2,3-triazol-2-yl)pyridin-3-yl)-1-(7-cyanopyrazolo[1,5-a]pyridin-4-yl)-5-(trifluoromethyl)-1H-pyrazole-4-carboxamide], for which the results for the IC50 in assay [1], in assay [2] and in assay [3] were 19 nM, 19 nM and 22 nM, respectively.

As to `CS(C)(=O)=Nc1ncc(NC(=O)c2cnn(-c3ccc(F)c4nccn34)c2C(F)(F)F)cc1Cl` [Cpd 33, N-(5-chloro-6-((dimethyl(oxo)-λ^6-sulfanylidene)amino)pyridin-3-yl)-1-(8-fluoroimidazo[1,2-a]pyridin-5-yl)-5-(trifluoromethyl)-1H-pyrazole-4-carboxamide], the IC50 in assay [1] was determined as 980 nM.

Regarding `O=C(Nc1cnc([C@@H]2CCCO2)c(Cl)c1)c1cnn(-c2ccc(Cl)n3nccc23)c1C(F)(F)F` (single isomer, unassigned) [Cpd 21, (*S)—N-(5-chloro-6-(tetrahydrofuran-2-yl)pyridin-3-yl)-1-(7-chloropyrazolo[1,5-a]pyridin-4-yl)-5-(trifluoromethyl)-1H-pyrazole-4-carboxamide], the IC50 in assay [1] came to 87 nM; in assay [2] it was 200 nM; in assay [3] it was 245 nM.

With `O=C(Nc1cnc([C@H]2CCCO2)c(Cl)c1)c1cnn(-c2ccc(Cl)n3nccc23)c1C(F)(F)F` (single isomer, unassigned) [Cpd 22, (*R)—N-(5-chloro-6-(tetrahydrofuran-2-yl)pyridin-3-yl)-1-(7-chloropyrazolo[1,5-a]pyridin-4-yl)-5-(trifluoromethyl)-1H-pyrazole-4-carboxamide], the IC50 in assay [1] turned out to be 977 nM.

As to `CO[C@@H](C)c1ncc(NC(=O)c2cnn(-c3ccc(Cl)n4nccc34)c2C(F)(F)F)cc1Cl` (single isomer, unassigned) [Cpd 27, (*S)—N-(5-chloro-6-(1-methoxyethyl)pyridin-3-yl)-1-(7-chloropyrazolo[1,5-a]pyridin-4-yl)-5-(trifluoromethyl)-1H-pyrazole-4-carboxamide], in assay [1], the IC50 worked out at 1020 nM.

Regarding `CO[C@@H](C)c1ncc(NC(=O)c2cnn(-c3ccc(F)c4nccn34)c2C(F)(F)F)cc1Cl` (single isomer, unassigned) [Cpd 17, (*S)—N-(5-chloro-6-(1-methoxyethyl)pyridin-3-yl)-1-(8-fluoroimidazo[1,2-a]pyridin-5-yl)-5-(trifluoromethyl)-1H-pyrazole-4-carboxamide], the IC50 in assay [1] amounted to 2340 nM.

Take `O=C(Nc1cnc(-n2nccn2)c(C(F)(F)F)c1)c1cnn(-c2ccc(F)c3nccn23)c1C(F)(F)F` [Cpd 4, N-(6-(2H-1,2,3-triazol-2-yl)-5-(trifluoromethyl)pyridin-3-yl)-1-(8-fluoroimidazo[1,2-a]pyridin-5-yl)-5-(trifluoromethyl)-1H-pyrazole-4-carboxamide]: the IC50 came out at 50 nM in assay [1], 31 nM in assay [2] and 47 nM in assay [3].

For the compound `CS(C)(=O)=Nc1ncc(NC(=O)c2cnn(-c3ccc(F)c4nccn34)c2C(F)(F)F)cc1C(F)(F)F` [Cpd 30, N-(6-((dimethyl(oxo)-λ^6-sulfanylidene)amino)-5-(trifluoromethyl)pyridin-3-yl)-1-(8-fluoroimidazo[1,2-a]pyridin-5-yl)-5-(trifluoromethyl)-1H-pyrazole-4-carboxamide], the half-maximal inhibitory concentration (IC50) in assay [1] was found to be 830 nM.

For `O=C(Nc1cnc(-c2ncco2)c(Cl)c1)c1cnn(-c2ccc(F)c3nccn23)c1C(F)(F)F` [Cpd 6, N-(5-chloro-6-(oxazol-2-yl)pyridin-3-yl)-1-(8-fluoroimidazo[1,2-a]pyridin-5-yl)-5-(trifluoromethyl)-1H-pyrazole-4-carboxamide], the IC50 in assay [1] was 30 nM; in assay [2] it was 105 nM; in assay [3], 257 nM.

For the compound `O=C(Nc1ccnc(C(F)(F)F)c1)c1cnn(-c2ccc(Cl)n3nccc23)c1C(F)(F)F` [Cpd 14, 1-(7-chloropyrazolo[1,5-a]pyridin-4-yl)-5-(trifluoromethyl)-N-(2-(trifluoromethyl)pyridin-4-yl)-1H-pyrazole-4-carboxamide], the IC50 worked out at 209 nM in assay [1], 501 nM in assay [2] and 115 nM in assay [3].

Take `NC(=O)c1ccc(-n2ncc(C(=O)Nc3cnc(-n4nccn4)c(Cl)c3)c2C(F)(F)F)n2ccnc12` [Cpd 1, 5-(4-((5-chloro-6-(2H-1,2,3-triazol-2-yl)pyridin-3-yl)carbamoyl)-5-(trifluoromethyl)-1H-pyrazol-1-yl)imidazo[1,2-a]pyridine-8-carboxamide]: the IC50 was found to be 49 nM in assay [1], 87 nM in assay [2] and 91 nM in assay [3].

`CS(=N)(=O)c1ncc(NC(=O)c2cnn(-c3ccc(F)c4nccn34)c2C(F)(F)F)cc1C(F)(F)F` (stereo not drawn) [Cpd 31, 1-(8-fluoroimidazo[1,2-a]pyridin-5-yl)-N-(6-(S-methylsulfonimidoyl)-5-(trifluoromethyl)pyridin-3-yl)-5-(trifluoromethyl)-1H-pyrazole-4-carboxamide]: the IC50 in assay [1] was found to be 3160 nM.

For the compound `Cc1cnc(-c2ncc(NC(=O)c3cnn(-c4ccc(F)c5nccn45)c3C(F)(F)F)cc2Cl)o1` [Cpd 9, N-(5-chloro-6-(5-methyloxazol-2-yl)pyridin-3-yl)-1-(8-fluoroimidazo[1,2-a]pyridin-5-yl)-5-(trifluoromethyl)-1H-pyrazole-4-carboxamide], the IC50 in assay [1] was found to be 81 nM; in assay [2], 129 nM; in assay [3], 240 nM.

In the case of `N#Cc1ccc(-n2ncc(C(=O)Nc3ccnc(C(F)(F)F)c3)c2C(F)(F)F)c2ccnn12` [Cpd 11, 1-(7-cyanopyrazolo[1,5-a]pyridin-4-yl)-5-(trifluoromethyl)-N-(2-(trifluoromethyl)pyridin-4-yl)-1H-pyrazole-4-carboxamide], the IC50 in assay [1] is 89 nM; in assay [2], 65 nM; in assay [3], 138 nM.

The values are drawn from patent US10888550B2, “Pyrazole derivatives as MALT1 inhibitors” (Janssen Pharmaceutica NV, priority 2018, dated 2021).
